Consider one substance from patent US4782042A, “Antibiotic A 40926 mannosyl aglycon” (Gruppo Lepetit S.p.A., priority 1985, dated 1988).

One assay relates to Staph. aureus Tour. The assay can be described thus: MIC, broth dilution (Isosensitest broth, 24 h). The format is cell-based. In general terms: Dilution methods test growth across graded concentrations, often in twofold steps.
Assay [1] has as its system Staph. epidermidis ATCC 12228. The assay can be described thus: MIC, broth dilution (Isosensitest broth, 24 h). The format is cell-based.
The next assay has as its system Strep. pyogenes C203. Nature of the assay: MIC, broth dilution (Todd-Hewitt broth, 24 h). The format is cell-based.
For another assay, the system named is Strep. pneumoniae UC41. Nature of the assay: MIC, broth dilution (Todd-Hewitt broth, 24 h). The format is cell-based.
In assay [2] the test system is Strep. faecalis ATCC 7080. Nature of the assay: MIC, broth dilution (Isosensitest broth, 24 h). The format is cell-based.
Assay [3] has as its system Strept. mitis clin. isolate. Nature of the assay: MIC, broth dilution (Todd-Hewitt broth, 24 h). The format is cell-based.
In assay [4] the test system is Clostridium perfringens ISS30543. The format is cell-based. The note with it: anaerobic.
Assay [5] has as its system Clostridium difficile ATCC 9689. The assay can be described thus: MIC, agar dilution (Wilkins-Chalgren agar, 48 h, anaerobic). The format is cell-based.
The subject of assay [6] is Bacteroides fragilis ATCC 23745. Described as above. The format is cell-based.
For assay [7], the system named is Propionibacterium acnes ATCC 6919. The description is as above. The format is cell-based.
Assay [8] relates to Neisseria gonorrhoeae ISM68/126. The assay can be described thus: MIC, broth dilution (GC base broth + 1% Isovitalex, 48 h, CO2-enriched). The format is cell-based.
The test system of assay [9] is Haemophilus influenzae type b ATCC 19418. Nature of the assay: MIC, agar dilution (GB base agar + 1% Isovitalex + 0.001% hemin, 24 h). The format is cell-based. (Agar dilution tests growth on a series of plates holding different concentrations.)
The test system of assay [10] is Escherichia coli SKF 12140. Nature of the assay: MIC, broth dilution (Isosensitest broth, 24 h). The format is cell-based.
Assay [11] has as its system Mycoplasma gallisepticum S6 Weybridge. Nature of the assay: MIC, broth dilution (PPLO broth + 10% horse serum + 1% glucose, 48 h). The format is cell-based.
Another assay has as its system S. pyogenes C 203. The assay can be described thus: Experimental septicemia in mice, ED50. The settings on record: mice infected intraperitoneally with S. pyogenes C 203; treated subcutaneously about 30 min after infection; survival, calculated on the 10th day (Spearman and Karber). The format is in vivo. How it is done: The antimicrobial activity of the compound of the invention is confirmed also in in vivo experiments conducted essentially as described by R. Pallanza et al., J. Antimicrob. Chemother. 11, 419 (1983). The experimental infection was induced in mice by intraperitoneally administering a suspension of S. pyogenes C 203. Inocula had been adjusted so that the untreated animals died of septicemia within 48 h. Animals were treated subcutaneously with the test compound about 30 min after infection. The ED50 value was calculated on the 10th day by the method of Spearman and Karber (D. J. Finney "Statistical Methods in Biological Assay", Griffin, page 524, 1952) on the basis of the percentage of survival at each dose.

For orientation: ED50 means the dose that gives a 50% effect, or the effect in half of the subjects. On to antibiotic A 40926 mannosyl aglycon, for which the M.I.C. in the assay with Staph. aureus Tour (Staph. aureus Tour (L165), 10^6 cfu/ml) worked out at 1 µg/mL; in the assay with Staph. aureus Tour (Staph. aureus Tour, 30% bovine serum), 2 µg/mL; in the assay on Staph. aureus Tour (Staph. aureus Tour, inoculum about 10^4-10^5 cfu/ml), 0.25 µg/mL; in assay [1], 0.5 µg/mL; in the assay with Strep. pyogenes C203, 1 µg/mL; in the assay with Strep. pneumoniae UC41, 1 µg/mL. Besides, the M.I.C. amounted to 1 µg/mL in assay [2]; 1 µg/mL in assay [3]; 0.13 µg/mL in assay [4]; 2 µg/mL in [5]; 64 µg/mL in assay [6]; 1 µg/mL in assay [7]. The M.I.C. in assay [8] is 32 µg/mL; in assay [9] it was 64 µg/mL; in assay [10] it was greater than 128 µg/mL; in assay [11] it was greater than 128 µg/mL. For the same substance, the ED50 with S. pyogenes C 203 is 3.8 mg/kg.
